Measurements published in US20250051356A1, “RIFABUTIN ANALOGS FOR THE TREATMENT OF DISEASE” (priority 2021, published 2025).
Values after ≈ are worked out from the molar mass of the structure shown. Read-outs that look alike come from different tables or passages of the source.

Experiments:
Type in all cases: cell-based
[1] = system: M. abscessus subsp. abscessus ATCC 19977; assay: MIC against M. abscessus in Middlebrook 7H9 + ADC; conditions: Mycobacteroides abscessus
[2] = system: M. avium (ATCC 25291); assay: MIC against M. avium in CAMHB + ADC; conditions: Mycobacterium avium
[3] = system: M. kansasii (ATCC 12478); assay: MIC against M. kansasii in CAMHB + ADC; conditions: Mycobacterium kansasii
[4] = system: M. xenopi (ATCC 19250); assay: MIC against M. xenopi in CAMHB + ADC; conditions: Mycobacterium xenopi
[5] = system: S. aureus (UAMS-1625 strain); assay: MIC by broth microdilution against S. aureus; conditions: Staphylococcus aureus, read-out: MIC S. aureus
[6] = system: A. baumannii (HUMC1 strain); assay: MIC by broth microdilution against A. baumannii in RPMI + 10% FCS; conditions: Acinetobacter baumannii, read-out: MIC A. baumannii
[7] = ATCC19977, ATCC 19977, 7H9 + ADC, read-out: MIC M. abscessus
[8] = ATCC25291, ATCC 25291, CAMHB + ADC (5%), read-out: MIC M. avium
[9] = ATCC12478, ATCC 12478, CAMHB + ADC (5%), read-out: MIC M. kansasii
[10] = ATCC19250, ATCC 19250, CAMHB + ADC (5%), read-out: MIC M. xenopi
[11] = ATCC19977, read-out: MIC M. abscessus
[12] = ATCC25291, read-out: MIC M. avium
[13] = ATCC12478, read-out: MIC M. kansasii
[14] = ATCC19250, read-out: MIC M. xenopi

`CO[C@H]1/C=C/O[C@@]2(C)Oc3c(C)c(O)c4c(c3C2=O)C2=NC3(CCN(CC(C)C)CC3)NC2=C(NC(=O)/C(C)=C\C=C\[C@H](C)[C@H](O)[C@@H](C)[C@@H](O)[C@@H](C)[C@H](OC(=O)CC(=O)N2CCN(c3ccccc3)CC2)[C@@H]1C)C4=O` [Compound 11] was tested, and the MIC [1, 7] was 0.125 µg/mL, the MIC [2, 8] was 0.125 µg/mL and the MIC [3, 9] was 0.008 µg/mL. It also gave an MIC [4, 10] of 0.06 µg/mL, an MIC [5] of 0.25 µg/mL (≈ 0.241 µM) and an MIC ([6]; HUMC1 strain, RPMI + 10% FCS) of 0.016 µg/mL.

`CO[C@H]1/C=C/O[C@@]2(C)Oc3c(C)c(O)c4c(c3C2=O)C2=NC3(CCN(CC(C)C)CC3)NC2=C(NC(=O)/C(C)=C\C=C\[C@H](C)[C@H](O)[C@@H](C)[C@@H](O)[C@@H](C)[C@H](OC(=O)CC(=O)N2CCC(N(C)c3ccccc3)CC2)[C@@H]1C)C4=O` [Compound 14] was tested, and the MIC [1, 7] was 0.125 µg/mL, the MIC [2, 8] was 0.06 µg/mL and the MIC [3, 9] was 0.002 µg/mL. For the same molecule, the MIC [4, 10] was 0.03 µg/mL, the MIC [5] was 0.5 µg/mL (≈ 0.47 µM) and the MIC ([6]; HUMC1 strain, RPMI + 10% FCS) was 0.06 µg/mL.

`CO[C@H]1/C=C/O[C@@]2(C)Oc3c(C)c(O)c4c(c3C2=O)C2=NC3(CCN(CC(C)C)CC3)NC2=C(NC(=O)/C(C)=C\C=C\[C@H](C)[C@H](O)[C@@H](C)[C@@H](O)[C@@H](C)[C@H](OC(=O)C(C)C(=O)N2CCC(N(C)c3ccccc3)CC2)[C@@H]1C)C4=O` (some centres unmarked) [Compound 40] was tested, and the MIC [1, 7] was 0.125 µg/mL, the MIC [2, 8] was 0.06 µg/mL and the MIC [3, 9] was 0.001 µg/mL. For the same molecule, the MIC [4, 10] was 0.03 µg/mL, the MIC [5] was 0.5 µg/mL (≈ 0.464 µM) and the MIC ([6]; HUMC1 strain, RPMI + 10% FCS) was 0.03 µg/mL.

With `CO[C@H]1/C=C/O[C@@]2(C)Oc3c(C)c(O)c4c(c3C2=O)C2=NC3(CCN(CC(C)C)CC3)NC2=C(NC(=O)/C(C)=C\C=C\[C@H](C)[C@H](O)[C@@H](C)[C@@H](O)[C@@H](C)[C@H](OC(=O)CC(=O)N2CCC(Nc3ccccc3)CC2)[C@@H]1C)C4=O` [Compound 44] the MIC [1, 11] was 0.25 µg/mL, the MIC [2, 12] was 0.06 µg/mL and the MIC [3, 13] was 0.004 µg/mL. For the same molecule, the MIC [4, 14] was 0.03 µg/mL, the MIC [5] was 0.25 µg/mL (≈ 0.238 µM) and the MIC [6] was 0.008 µg/mL.

With `CO[C@H]1/C=C/O[C@@]2(C)Oc3c(C)c(O)c4c(c3C2=O)C2=NC3(CCN(CC(C)C)CC3)NC2=C(NC(=O)/C(C)=C\C=C\[C@H](C)[C@H](O)[C@@H](C)[C@@H](O)[C@@H](C)[C@H](OC(=O)CC(=O)N2CCC(n3nnc5cc(C(F)(F)F)ccc53)CC2)[C@@H]1C)C4=O` [Compound 49] the MIC [1, 7] was 0.25 µg/mL, the MIC [2, 8] was 0.06 µg/mL and the MIC [3, 9] was 0.008 µg/mL. It also gave an MIC [4, 10] of 0.03 µg/mL, an MIC [5] of 1 µg/mL (≈ 0.875 µM) and an MIC ([6]; HUMC1 strain, RPMI + 10% FCS) of 0.25 µg/mL.

`CO[C@H]1/C=C/O[C@@]2(C)Oc3c(C)c(O)c4c(c3C2=O)C2=NC3(CCN(CC(C)C)CC3)NC2=C(NC(=O)/C(C)=C\C=C\[C@H](C)[C@H](O)[C@@H](C)[C@@H](O)[C@@H](C)[C@H](OC(=O)CC(=O)N2CCC(Cc3ccccc3)CC2)[C@@H]1C)C4=O` [Compound 50] showed an MIC [1, 11] of 0.125 µg/mL, an MIC [2, 12] of 0.06 µg/mL and an MIC [3, 13] of 0.004 µg/mL. The MIC [4, 14] was 0.03 µg/mL, the MIC [5] was 2 µg/mL (≈ 1.91 µM) and the MIC [6] was 0.06 µg/mL.

`CO[C@H]1/C=C/O[C@@]2(C)Oc3c(C)c(O)c4c(c3C2=O)C2=NC3(CCN(CC(C)C)CC3)NC2=C(NC(=O)/C(C)=C\C=C\[C@H](C)[C@H](O)[C@@H](C)[C@@H](O)[C@@H](C)[C@H](OC(=O)CC(=O)N2CCC3(CC2)Cc2ccccc2C3)[C@@H]1C)C4=O` [Compound 52] was tested, and the MIC [1, 7] was 0.125 µg/mL, the MIC [2, 8] was 0.03 µg/mL and the MIC [3, 9] was 0.002 µg/mL. The MIC [4, 10] was 0.03 µg/mL, the MIC [5] was 0.5 µg/mL (≈ 0.472 µM) and the MIC ([6]; HUMC1 strain, RPMI + 10% FCS) was 0.016 µg/mL.

In the case of `CO[C@H]1/C=C/O[C@@]2(C)Oc3c(C)c(O)c4c(c3C2=O)C2=NC3(CCN(CC(C)C)CC3)NC2=C(NC(=O)/C(C)=C\C=C\[C@H](C)[C@H](O)[C@@H](C)[C@@H](O)[C@@H](C)[C@H](OC(=O)CC(=O)N2CCC(O)(Cc3ccccc3)CC2)[C@@H]1C)C4=O` [Compound 54], the MIC [1, 7] is reported as 0.25 µg/mL, the MIC [2, 8] is reported as 0.06 µg/mL and the MIC [3, 9] is reported as 0.008 µg/mL. For the same molecule, the MIC [4, 14] was 0.125 µg/mL, the MIC [5] was 0.125 µg/mL (≈ 0.117 µM) and the MIC ([6]; HUMC1 strain, RPMI + 10% FCS) was 0.008 µg/mL.

`CO[C@H]1/C=C/O[C@@]2(C)Oc3c(C)c(O)c4c(c3C2=O)C2=NC3(CCN(CC(C)C)CC3)NC2=C(NC(=O)/C(C)=C\C=C\[C@H](C)[C@H](O)[C@@H](C)[C@@H](O)[C@@H](C)[C@H](OC(=O)CC(=O)N2CCC(C(=O)c3ccccc3)CC2)[C@@H]1C)C4=O` [Compound 55] showed an MIC [1, 7] of 0.25 µg/mL, an MIC [2, 8] of 1 µg/mL and an MIC [3, 9] of 0.016 µg/mL. For the same molecule, the MIC [4, 10] was 0.06 µg/mL, the MIC [5] was 0.5 µg/mL (≈ 0.471 µM) and the MIC ([6]; HUMC1 strain, RPMI + 10% FCS) was 0.016 µg/mL.

Work on `CO[C@H]1/C=C/O[C@@]2(C)Oc3c(C)c(O)c4c(c3C2=O)C2=NC3(CCN(CC(C)C)CC3)NC2=C(NC(=O)/C(C)=C\C=C\[C@H](C)[C@H](O)[C@@H](C)[C@@H](O)[C@@H](C)[C@H](OC(=O)CC(=O)N2CCC(CCc3ccccc3)CC2)[C@@H]1C)C4=O` [Compound 56] yielded an MIC [1, 7] of 0.25 µg/mL, an MIC [2, 8] of 0.5 µg/mL and an MIC [3, 9] of 0.03 µg/mL. For the same molecule, the MIC [4, 10] was 0.06 µg/mL, the MIC [5] was 2 µg/mL (≈ 1.88 µM) and the MIC ([6]; HUMC1 strain, RPMI + 10% FCS) was 0.03 µg/mL.

`CO[C@H]1/C=C/O[C@@]2(C)Oc3c(C)c(O)c4c(c3C2=O)C2=NC3(CCN(CC(C)C)CC3)NC2=C(NC(=O)/C(C)=C\C=C\[C@H](C)[C@H](O)[C@@H](C)[C@@H](O)[C@@H](C)[C@H](OC(=O)CC(=O)N2CCC(Oc3ccccc3)CC2)[C@@H]1C)C4=O` [Compound 57] gave an MIC [1, 11] of 0.125 µg/mL, an MIC [2, 12] of 0.125 µg/mL and an MIC [3, 13] of 0.008 µg/mL. For the same molecule, the MIC [4, 14] was 0.03 µg/mL, the MIC [5] was 0.5 µg/mL (≈ 0.476 µM) and the MIC [6] was 0.03 µg/mL.

`CO[C@H]1/C=C/O[C@@]2(C)Oc3c(C)c(O)c4c(c3C2=O)C2=NC3(CCN(CC(C)C)CC3)NC2=C(NC(=O)/C(C)=C\C=C\[C@H](C)[C@H](O)[C@@H](C)[C@@H](O)[C@@H](C)[C@H](OC(=O)CC(=O)N2CCCN(c3ccc(F)cc3)CC2)[C@@H]1C)C4=O` [Compound 66] showed an MIC [1, 11] of 0.125 µg/mL, an MIC [2, 8] of 0.125 µg/mL and an MIC [3, 9] of 0.016 µg/mL. The MIC [4, 10] was 0.06 µg/mL, the MIC [5] was 0.125 µg/mL (≈ 0.117 µM) and the MIC ([6]; HUMC1 strain, RPMI + 10% FCS) was 0.016 µg/mL.

Work on `CO[C@H]1/C=C/O[C@@]2(C)Oc3c(C)c(O)c4c(c3C2=O)C2=NC3(CCN(CC(C)C)CC3)NC2=C(NC(=O)/C(C)=C\C=C\[C@H](C)[C@H](O)[C@@H](C)[C@@H](O)[C@@H](C)[C@H](OC(=O)CC(=O)N2CCC(OC3CCC(C)CC3)CC2)[C@@H]1C)C4=O` (some centres unmarked) [Compound 67] yielded an MIC [1, 7] of 0.125 µg/mL, an MIC [2, 8] of 0.25 µg/mL and an MIC [3, 9] of 0.008 µg/mL. The MIC [4, 10] was 0.125 µg/mL, the MIC [5] was 0.25 µg/mL (≈ 0.234 µM) and the MIC ([6]; HUMC1 strain, RPMI + 10% FCS) was 0.008 µg/mL.

Work on `CO[C@H]1/C=C/O[C@@]2(C)Oc3c(C)c(O)c4c(c3C2=O)C2=NC3(CCN(CC(C)C)CC3)NC2=C(NC(=O)/C(C)=C\C=C\[C@H](C)[C@H](O)[C@@H](C)[C@@H](O)[C@@H](C)[C@H](OC(=O)CC(=O)N2CCN(CCN3CCCCC3)CC2)[C@@H]1C)C4=O` [Compound 114] yielded an MIC [1, 7] of 0.5 µg/mL, an MIC [5] of 0.125 µg/mL (≈ 0.117 µM) and an MIC ([6]; HUMC1 strain, RPMI + 10% FCS) of no more than 0.002 µg/mL.

Molecule `CO[C@H]1/C=C/O[C@@]2(C)Oc3c(C)c(O)c4c(c3C2=O)C2=NC3(CCN(CC(C)C)CC3)NC2=C(NC(=O)/C(C)=C\C=C\[C@H](C)[C@H](O)[C@@H](C)[C@@H](O)[C@@H](C)[C@H](OC(=O)CC(=O)N2CCN(CCN3CCOCC3)CC2)[C@@H]1C)C4=O` [Compound 115] has an MIC [1, 7] of 0.5 µg/mL, an MIC [5] of 0.06 µg/mL (≈ 0.056 µM) and an MIC ([6]; HUMC1 strain, RPMI + 10% FCS) of no more than 0.002 µg/mL.

With `CO[C@H]1/C=C/O[C@@]2(C)Oc3c(C)c(O)c4c(c3C2=O)C2=NC3(CCN(CC(C)C)CC3)NC2=C(NC(=O)/C(C)=C\C=C\[C@H](C)[C@H](O)[C@@H](C)[C@@H](O)[C@@H](C)[C@H](OC(=O)CC(=O)N2CCCN(c3ccncc3)CC2)[C@@H]1C)C4=O` [Compound 121] the MIC [1, 7] was 0.25 µg/mL, the MIC [2, 8] was 2 µg/mL and the MIC [3, 13] was 0.125 µg/mL. The MIC [5] was 0.125 µg/mL (≈ 0.119 µM) and the MIC ([6]; HUMC1 strain, RPMI + 10% FCS) was no more than 0.002 µg/mL.
